In US7759356B2, “Arylindenopyridines and arylindenopyrimidines and related therapeutic and prophylactic methods” (Janssen Pharmaceutica, N.V., priority 2002, dated 2010):

Columns and labels:
[1] = molecular target: T1, human A2a adenosine receptor (Homo sapiens, UniProt P29274); experiment: Ligand binding assay for adenosine A2a receptor ([3H]CGS21680, HEK293 membranes); conditions: radioligand [3H]CGS21680, HEK293 plasma membrane
T1 construct: purchased PerkinElmer RB-HA2a; host or cells: HEK293 cell plasma membranes
Description: Ligand Binding Assay for Adenosine A2a Receptor
Ligand binding assay of adenosine A2a receptor was performed using plasma membrane of HEK293 cells containing human A2a adenosine receptor (PerkinElmer, RB-HA2a) and radioligand [^3H]CGS21680 (PerkinElmer, NET1021). Assay was set up in 96-well polypropylene plate in total volume of 200 μL by sequentially adding 20 μL1:20 diluted membrane, 130 μL assay buffer (50 mM Tris.HCl, pH7.4 10 mM MgCl2, 1 mM EDTA) containing [^3H] […] Nonspecific binding was determined by […] NECA. Reaction was carried out at room temperature for 2 hours before filtering through 96-well GF/C filter plate pre-soaked in 50 mM Tris.HCl, pH7.4 containing 0.3% polyethylenimine. Plates were then washed 5 times with cold 50 mM Tris.HCl, pH7.4, dried and sealed at the bottom. Microscintillation fluid 30 μl was added to each well and the top sealed. Plates were counted on Packard Topcount for [^3H]. Data was analyzed in Microsoft Excel and GraphPad Prism programs.

A1 = molecular target: T2, A1 (Homo sapiens, UniProt P30542); experiment: A1 antagonist function; type: cell-based
T2 sequence (P30542 1-326): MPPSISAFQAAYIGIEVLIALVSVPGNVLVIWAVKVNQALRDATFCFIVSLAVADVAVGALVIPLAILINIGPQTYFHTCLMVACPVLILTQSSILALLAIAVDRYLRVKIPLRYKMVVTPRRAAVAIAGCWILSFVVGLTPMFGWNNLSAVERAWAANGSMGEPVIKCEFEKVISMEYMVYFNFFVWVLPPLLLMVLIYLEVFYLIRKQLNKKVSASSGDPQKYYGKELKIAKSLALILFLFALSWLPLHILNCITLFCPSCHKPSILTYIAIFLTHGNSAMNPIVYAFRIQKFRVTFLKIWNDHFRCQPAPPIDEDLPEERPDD

[2] = molecular target: T3, human adenosine A2a receptors (Homo sapiens, UniProt P29274); experiment: Adenosine A2a receptor functional assay (antagonist mode, cAMP-inducible beta-galactosidase reporter, CHO-K1 cells, 50 nM NECA); type: cell-based; conditions: read-out: Ki A2a antagonist function
T3 construct: expressed in transfected cells; host or cells: CHO-K1 cells with cAMP-inducible beta-galactosidase reporter gene
Description: Adenosine A2a Receptor Functional Assay
CHO—K1 cells overexpressing human adenosine A2a receptors and containing cAMP-inducible beta-galactosidase reporter gene were seeded at 40-50K/well into 96-well tissue culture plates and cultured for two days. On assay day, cells were washed once with 200 μL assay medium (F-12 nutrient mixture/0.1% BSA). For agonist assay, adenosine A2a receptor agonist NECA was subsequently added and cell incubated at 37° C., 5% CO2 for 5 hrs before stopping reaction. In the case of antagonist assay, cells were incubated with antagonists for 5 minutes at R.T. followed by addition of 50 nM NECA. Cells were then incubated at 37° C., 5% CO2 for 5 hrs before stopping experiments by washing cells with PBS twice. 50 μL 1× lysis buffer (Promega, 5× stock solution, needs to be diluted to 1× before use) was added to each well and plates frozen at −20° C. For β-galactosidase enzyme colorimetric assay, plates were thawed out at room temperature and 50 μL 2× assay buffer (Promega) added to each well. Color was allowed to develop at 37° C. for 1 h or until reasonable signal appeared. Reaction was then stopped with 150 μL 1M sodium carbonate. […] Data was analyzed in Microsoft Excel and GraphPad Prism programs.

T3 sequence (P29274 whole entry): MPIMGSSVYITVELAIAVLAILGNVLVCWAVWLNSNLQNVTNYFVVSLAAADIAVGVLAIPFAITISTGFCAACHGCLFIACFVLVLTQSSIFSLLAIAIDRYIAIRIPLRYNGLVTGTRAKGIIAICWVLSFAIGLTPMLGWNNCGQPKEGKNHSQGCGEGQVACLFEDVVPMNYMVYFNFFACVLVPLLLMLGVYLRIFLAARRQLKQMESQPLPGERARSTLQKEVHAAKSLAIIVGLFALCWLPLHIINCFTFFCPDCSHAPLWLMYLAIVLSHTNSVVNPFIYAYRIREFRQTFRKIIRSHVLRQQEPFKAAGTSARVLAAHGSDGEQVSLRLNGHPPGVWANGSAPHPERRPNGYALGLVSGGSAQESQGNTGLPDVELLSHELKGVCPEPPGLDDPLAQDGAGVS
T1 sequence (P29274 whole entry): as above

| Structure (SMILES) | Ki [1] [nM] | Ki (A1) [nM] | Ki [2] [nM] |
| --- | --- | --- | --- |
| Nc1nc(-c2ccccc2)c2c(n1)-c1cccc(CN3CCN(CCO)CC3)c1C2=O [Compound 58] | 30.6 | 61 | 11.7 |
| CC(CN(C)C)NC(=O)c1c(N)nc(-c2ccco2)c2c1-c1ccccc1C2=O (stereo not drawn) [Compound 78, 9H-indeno[2,1-c]pyridine-4-carboxylic acid, 3-amino-1-furan-2-yl-9-oxo-, (2-dimethylamino-1-methyl-ethyl)-amide] | – | > 500 | – |
| Nc1nc(-c2ccco2)c2c(n1)-c1cccc(N)c1C2=O [Compound 20] | 0.05 | 0.91 | 0.126 |
| C[C@@H](CN(C)C)OC(=O)c1c(N)nc(-c2ccco2)c2c1-c1ccccc1C2=O [Compound 96] | 48.5 | 52.5 | 10.1 |
| CC(O)C(O)c1cccc2c1-c1nc(N)nc(-c3ccccc3)c1C2=O (stereo not drawn) [Compound 33] | 0.175 | 0.021 | 0.34 |
| CN(C)CCOC(=O)c1c(N)nc(-c2ccsc2)c2c1-c1ccccc1C2=O [Compound 93] | 64 | – | – |
| CN(C)CCN(C)C(=O)c1c(N)nc(-c2ccco2)c2c1-c1ccccc1C2=O [Compound 77, 9H-indeno[2,1-c]pyridine-4-carboxylic acid, 3-amino-1-furan-2-yl-9-oxo-, (2-dimethylamino-ethyl)-methyl-amide] | – | > 500 | – |
| CN1CCN(Cc2cccc3c2C(=O)c2c(-c4ccccc4)nc(N)nc2-3)CC1 [Compound 50] | 80.2 | – | – |
| COc1ccc(-c2nc(N)nc3c2C(=O)c2ccccc2-3)cn1 [Compound 30] | 31.6 | – | – |
| CS(=O)(=O)c1nc(N)nc2c1C(=O)c1ccccc1-2 [Compound 40, 2-Amino-4-methanesulfonyl-indeno[1,2-d]pyrimidin-5-one] | 2720 | – | – |
